From patent US7026475B2, “Positive allosteric AMPA receptor modulators (PAARM), processes for preparing them, and their use as pharmaceutical compositions” (Boehringer Ingelheim Pharma GmbH & Co. KG, priority 2001, dated 2006)

Test system: AMPA receptors
Assay: Electrophysiological measurement of intensification of the agonist-induced current on cells expressing functional AMPA receptors
Assay type: cell-based
Parameters: key: + good; + + very good
Conditions: positive allosteric influence on agonist-induced current; tested at concentrations between 0.3 μmol and 300 μmol
Description: The effect of the compounds according to the invention as AMPA receptor modulators was measured electrophysiologically on cells which express functional AMPA receptors. Investigations were carried out to see whether the test substances have a positive allosteric influence on the agonist-induced current.
The test was carried out at concentrations of between 0.3 μmol and 300 μmol.

Compound | Intensification of the Agonist-Induced Current, Activity
CC1Nc2cccc3cccc(c23)S1(=O)=O (centres unmarked) [Example 1, 2-methyl-2,3-dihydronaphtho[1,8-de][1,3]thiazine-1,1-dioxide] | +
CC1Nc2ccc(Cl)c3cccc(c23)S1(=O)=O (centres unmarked) [Example 2, 6-chloro-2-methyl-2,3-dihydronaphtho[1,8-de][1,3]thiazine-1,1-dioxide] | + +
